Laboratory results: patent publication US12129237B2, “Substituted diaminocarboxamide and diaminocarbonitrile pyrimidines, compositions thereof, and methods of treatment therewith” (SIGNAL PHARMACEUTICALS, LLC, priority 2011, dated 2024)
pIC50: −log10 of the molar value.

The compounds below were run against T1, JNK1 (Homo sapiens, UniProt P45983) (assay: JNK1 biochemical assays (one or more of: time resolved fluorescence, Z'-LYTE Cascade, radioactive)). Conditions: one or more of the JNK1 biochemical assays; read-out: Act. Level (JNK1 IC50 activity level).
T1 construct: purchased Carna Biosciences
T1 sequence (P45983 whole entry): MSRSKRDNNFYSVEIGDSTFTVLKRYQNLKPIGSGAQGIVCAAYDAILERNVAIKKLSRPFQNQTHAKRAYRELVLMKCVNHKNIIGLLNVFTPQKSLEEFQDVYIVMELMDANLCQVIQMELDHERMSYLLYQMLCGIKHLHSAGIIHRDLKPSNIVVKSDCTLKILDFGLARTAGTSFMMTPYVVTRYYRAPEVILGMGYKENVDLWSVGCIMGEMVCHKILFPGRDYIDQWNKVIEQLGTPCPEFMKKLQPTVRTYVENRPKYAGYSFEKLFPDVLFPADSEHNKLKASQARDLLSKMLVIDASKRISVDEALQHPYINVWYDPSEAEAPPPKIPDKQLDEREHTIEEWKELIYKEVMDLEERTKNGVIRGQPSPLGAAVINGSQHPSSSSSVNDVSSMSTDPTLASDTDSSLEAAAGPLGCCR

Row | SMILES | pIC50
1 | C[C@@H](Nc1nc(N[C@H]2CC[C@H](OC3CC3)CC2)ncc1C(N)=O)C1CC1 [Example 410, 2-((1r,4R)-4-cyclopropoxycyclohexylamino)-4-((R)-1-cyclopropylethylamino)pyrimidine-5-carboxamide] | > 6.70
2 | CCO[C@H]1CC[C@H](Nc2ncc(C(N)=O)c(N[C@H](C)C3CC3)n2)CC1 [Example 411, 4-((R)-1-cyclopropylethylamino)-2-((1r,4R)-4-ethoxycyclohexylamino)pyrimidine-5-carboxamide] | > 6.70
3 | CC1(Nc2nc(NC34CCC(O)(CC3)CC4)ncc2C(N)=O)CCC1 [Example 412, 2-(4-hydroxybicyclo[2.2.2]octan-1-ylamino)-4-(1-methylcyclobutylamino)pyrimidine-5-carboxamide] | > 6.70
4 | CC1(Nc2nc(NC3CCOCC3)ncc2C(N)=O)CCC1 [Example 413, 4-(1-methylcyclobutylamino)-2-(tetrahydro-2H-pyran-4-ylamino)pyrimidine-5-carboxamide] | > 6.70
5 | CN(C)C(=O)[C@H]1CC[C@H](Nc2ncc(C(N)=O)c(NC3(C)CCC3)n2)CC1 [Example 414, 2-((1r,4r)-4-(dimethylcarbamoyl)cyclohexylamino)-4-(1-methylcyclobutylamino)pyrimidine-5-carboxamide] | > 6.70
6 | CC1(Nc2nc(N[C@H]3CC[C@H](OCC(F)(F)F)CC3)ncc2C(N)=O)CCC1 [Example 415, 4-(1-methylcyclobutylamino)-2-((1r,4r)-4-(2,2,2-trifluoroethoxy)cyclohexylamino)pyrimidine-5-carboxamide] | > 6.70
7 | CC1(Nc2nc(N[C@H]3CC[C@H](OC(F)F)CC3)ncc2C(N)=O)CCC1 [Example 416, 2-((1r,4r)-4-(difluoromethoxy)cyclohexylamino)-4-(1-methylcyclobutylamino)pyrimidine-5-carboxamide] | > 6.70
8 | NC(=O)c1cnc(NC23CCC(O)(CC2)CC3)nc1NC12CC(C1)C2 [Example 417, 4-(bicyclo[1.1.1]pentan-1-ylamino)-2-(4-hydroxybicyclo[2.2.2]octan-1-ylamino)pyrimidine-5-carboxamide] | > 6.70
9 | CN(C)C(=O)[C@H]1CC[C@H](Nc2ncc(C(N)=O)c(NC34CC(C3)C4)n2)CC1 [Example 418, 4-(bicyclo[1.1.1]pentan-1-ylamino)-2-((1r,4r)-4-(dimethylcarbamoyl)cyclohexylamino)pyrimidine-5-carboxamide] | > 6.70
10 | NC(=O)c1cnc(N[C@H]2CC[C@H](OCC(F)(F)F)CC2)nc1NC12CC(C1)C2 [Example 419, 4-(bicyclo[1.1.1]pentan-1-ylamino)-2-((1r,4r)-4-(2,2,2-trifluoroethoxy)cyclohexylamino)pyrimidine-5-carboxamide] | > 6.70
11 | NC(=O)c1cnc(N[C@H]2CC[C@H](OC(F)F)CC2)nc1NC12CC(C1)C2 [Example 420, 4-(bicyclo[1.1.1]pentan-1-ylamino)-2-((1r,4r)-4-(difluoromethoxy)cyclohexylamino)pyrimidine-5-carboxamide] | > 6.70
12 | CO[C@H]1CC[C@H](Nc2ncc(C(N)=O)c(N[C@H](C)C3CC3)n2)CC1 [Example 421, 4-((R)-1-cyclopropylethylamino)-2-((1r,4R)-4-methoxycyclohexylamino)pyrimidine-5-carboxamide] | > 6.70
13 | C[C@@H](Nc1nc(N[C@H]2CCCOC2)ncc1C(N)=O)C1CC1 [Example 422, 4-((R)-1-cyclopropylethylamino)-2-((S)-tetrahydro-2H-pyran-3-ylamino)pyrimidine-5-carboxamide] | > 6.70
14 | C[C@@H](Nc1nc(N[C@@H]2CCC[C@H](O)C2)ncc1C(N)=O)C1CC1 [Example 423, 4-((R)-1-cyclopropylethylamino)-2-((1R,3S)-3-hydroxycyclohexylamino)pyrimidine-5-carboxamide] | > 6.70
15 | C[C@@H](Nc1nc(NC2CCOCC2)ncc1C(N)=O)C1CC1 [Example 424, (R)-4-(1-cyclopropylethylamino)-2-(tetrahydro-2H-pyran-4-ylamino)pyrimidine-5-carboxamide] | > 6.70
16 | C[C@@H](Nc1nc(N[C@H]2CC[C@H](C(=O)N(C)C)CC2)ncc1C(N)=O)C1CC1 [Example 425, 4-((R)-1-cyclopropylethylamino)-2-((1r,4R)-4-(dimethylcarbamoyl)cyclohexylamino)pyrimidine-5-carboxamide] | > 6.70
17 | C[C@@H](Nc1nc(N[C@H]2CC[C@H](OC(F)F)CC2)ncc1C(N)=O)C1CC1 [Example 426, 4-((R)-1-cyclopropylethylamino)-2-((1r,4R)-4-(difluoromethoxy)cyclohexylamino)pyrimidine-5-carboxamide] | > 6.70
18 | CC1(C)CCC(Nc2nc(NC34CC(C3)C4)ncc2C(N)=O)CC1O (stereo not shown) [Example 427, 2-(bicyclo[1.1.1]pentan-1-ylamino)-4-(3-hydroxy-4,4-dimethylcyclohexylamino)pyrimidine-5-carboxamide] | 6.10 to 6.70
19 | CC1(C)CCC(Nc2nc(NC3CCC3)ncc2C(N)=O)CC1O (stereo not shown) [Example 428, 2-(cyclobutylamino)-4-(3-hydroxy-4,4-dimethylcyclohexylamino)pyrimidine-5-carboxamide] | > 6.70
20 | CC1(C)CCC(Nc2nc(NC3CCC3)ncc2C(N)=O)CC1O (stereo not shown) [Example 429, 2-(cyclobutylamino)-4-(3-hydroxy-4,4-dimethylcyclohexylamino)pyrimidine-5-carboxamide] | > 6.70
21 | CC1(Nc2ncc(C(N)=O)c(NC3CCC(C)(C)C(O)C3)n2)CC1 (stereo not shown) [Example 430, 4-(3-hydroxy-4,4-dimethylcyclohexylamino)-2-(1-methylcyclopropylamino)pyrimidine-5-carboxamide] | > 6.70
22 | CC1(Nc2ncc(C(N)=O)c(NC3CCC(C)(C)C(O)C3)n2)CC1 (stereo not shown) [Example 431, 4-(3-hydroxy-4,4-dimethylcyclohexylamino)-2-(1-methylcyclopropylamino)pyrimidine-5-carboxamide] | > 6.70
23 | CC1(C)CCC(Nc2nc(NC34CC(C3)C4)ncc2C(N)=O)CC1O (stereo not shown) [Example 432, 2-(bicyclo[1.1.1]pentan-1-ylamino)-4-(3-hydroxy-4,4-dimethylcyclohexylamino)pyrimidine-5-carboxamide] | > 6.70
24 | NC(=O)c1cnc(N[C@@H]2CCC[C@H](O)C2)nc1NC1CCC1 [Example 433, 4-(cyclobutylamino)-2-((1R,3S)-3-hydroxycyclohexylamino)pyrimidine-5-carboxamide] | > 6.70
25 | NC(=O)c1cnc(N[C@H]2CC[C@H](OC3CC3)CC2)nc1NC1CCC1 [Example 434, 4-(cyclobutylamino)-2-((1r,4r)-4-cyclopropoxycyclohexylamino)pyrimidine-5-carboxamide] | > 6.70
26 | NC(=O)c1cnc(NC2CCOCC2)nc1NC1CCC1 [Example 435, 4-(cyclobutylamino)-2-(tetrahydro-2H-pyran-4-ylamino)pyrimidine-5-carboxamide] | > 6.70
27 | NC(=O)c1cnc(N[C@H]2CC[C@H](OC(F)F)CC2)nc1NC1CCC1 [Example 436, 4-(cyclobutylamino)-2-((1r,4r)-4-(difluoromethoxy)cyclohexylamino)pyrimidine-5-carboxamide] | > 6.70
28 | CN(C)C(=O)[C@H]1CC[C@H](Nc2ncc(C(N)=O)c(NC3CCC3)n2)CC1 [Example 437, 4-(cyclobutylamino)-2-((1r,4r)-4-(dimethylcarbamoyl)cyclohexylamino)pyrimidine-5-carboxamide] | > 6.70
